These molecules were tested against T1, human PD-L1 / human PD-1 interaction (Homo sapiens, UniProt Q9NZQ7) (assay: ELISA of PD-1/PD-L1 interaction).
T1 construct: purchased R&D (PD-L1); ACRO Biosystems (PD-1, biotin)
T1 sequence (Q9NZQ7 19-239 limits assumed): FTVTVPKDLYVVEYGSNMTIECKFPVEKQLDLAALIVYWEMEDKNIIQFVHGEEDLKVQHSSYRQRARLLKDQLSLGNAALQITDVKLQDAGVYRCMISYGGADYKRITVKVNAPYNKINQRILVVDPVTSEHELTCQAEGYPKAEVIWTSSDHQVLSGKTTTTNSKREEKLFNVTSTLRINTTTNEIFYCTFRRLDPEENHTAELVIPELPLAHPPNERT
Format: binding
Experimental: The activity of Compound 1.041 was assessed with an ELISA assay assessing the direct binding of recombinant PD-1 and PD-L1 proteins (FIG. 1A), a dimerization ELISA assay assessing the direct binding/dimerization of recombinant PD-L1 proteins (FIG. 1B), a cell based assay measuring the downstream signaling following the interaction of PD-1 and PD-L1 using a Luciferase reporter assay with cell lines overexpressing PD-1 and PD-L1 (FIG. 1C), and a mixed lymphocyte reaction assay measuring the functional outcome of upregulation of IFNg secretion, using allogenic primary human immune cells (FIG. 1D). Briefly, the mixed lymophocyte reaction assay was performed as follows: Dendritic cells and CD4+T Cells from unmatched donors were cultured together for 5 days in 96 well-flat bottom plates. Test compound was added as indicated at starting concentration of 1 μM with 1:4 dilutions with DMSO. Supernatants were harvested after 5 days of incubation and detection of human IFNg was performed by ELISA. […]
96 Well plates were coated with 1 μg/mL of human PD-L1 (obtained from R&D) in
PBS overnight at 4° C. The wells were then blocked with 2% BSA in PBS (WN) with 0.05% TWEEN-20 for 1 hour at 37° C. The plates were washed 3 times with PBS/0.05% TWEEN-20 and the compounds were serial diluted (1:5) in dilution medium and added to the ELISA plates. Human PD-1 and biotin 0.3μg/mL (ACRO Biosystems) were added and incubated for 1 hour at 37° C. then washed 3 times with PBS/0.05% TWEEN-20. A second block was performed with 2% BSA in PBS (WN)/0.05% TWEEN-20 for 10 min at 37° C. and was washed 3 times with PBS/0.05% TWEEN-20. Streptavidin—HRP was added for 1 hour at 37° C. then washed 3 times with PBS/0.05% TWEEN-20. TMB substrate was added and reacted for 20 min at 37° C. A stop solution (2 N aqueous H2SO4) was added. The absorbance was read at 450 nm using a micro-plate spectrophotometer.
`CCOc1cc(O[C@H]2CCc3c(-c4cccc(OCCCN5CCC5(C)C)c4C)cccc32)c(Cl)cc1CN(C)CC(=O)O` showed an IC50 of 5 to 500 nM.
`N#Cc1cncc(COc2cc(O[C@H]3CCc4c(-c5cccc(OCCCN6CC7(C6)CC(F)(F)C7)c5Cl)cccc43)c(Cl)cc2CN[C@H]2CCC[C@@H]2O)c1` gave an IC50 of under 5 nM.
Work on `N#Cc1cncc(COc2cc(O[C@H]3CCc4c(-c5cccc(OCCCN6CC(O)C6)c5Cl)cccc43)c(Cl)cc2CN2CCCC3(C2)NC(=O)NC3=O)c1` (stereo partly shown) yielded an IC50 of under 5 nM.
For `COC(=O)C1(O)CCN(CCCOc2cccc(-c3cccc4c3CC[C@@H]4Oc3cc(OCc4cncc(C#N)c4)c(CN[C@H](C(=O)O)[C@@H](C)O)cc3Cl)c2C)C1` (stereo partly shown), the IC50 was under 5 nM.
In the case of `CC1(F)CCN(CCCOc2cccc(-c3cccc4c3CC[C@@H]4Oc3cc(OCc4cncc(C#N)c4)c(CN[C@@H]4CCCC[C@@H]4O)cc3Cl)c2Cl)CC1`, the IC50 is reported as under 5 nM.
With `C[C@@H](O)[C@H](NCc1cc(Cl)c(O[C@H]2CCc3c(-c4cccc(OCCCN5CCC(C)(F)CC5)c4Cl)cccc32)cc1OCc1cncc(C#N)c1)C(=O)NS(C)(=O)=O` the IC50 was under 5 nM.
Molecule `Cc1c(OCCCN2CCC(F)CC2)cccc1-c1cccc2c1CC[C@@H]2Oc1cc(OCc2cc(C#N)cc(C#N)c2)c(CN[C@@H]2CCOC[C@H]2O)cc1Cl` has an IC50 of under 5 nM.
`Cc1c(OCCCN2CCC(O)CC2)cccc1-c1cccc2c1CC[C@@H]2Oc1cc(OCc2cncc(C#N)c2)c(CN[C@H](C(N)=O)[C@@H](C)O)cc1Cl` gave an IC50 of under 5 nM.
For `N#Cc1cncc(COc2cc(O[C@H]3CCc4c(-c5cccc(OCCCN6CC7(CC(O)C7)C6)c5Cl)cccc43)c(Cl)cc2CNC[C@H]2CCC(=O)N2)c1`, the IC50 was under 5 nM.
For `N#Cc1cncc(COc2cc(O[C@H]3CCc4c(-c5cccc(OCCCN6CCC(F)CC6)c5Cl)cccc43)c(Cl)cc2CN[C@H]2CCOC[C@@H]2O)c1` [drawing 198], the IC50 was under 5 nM.
With `Cc1c(OCCCN2[C@H](C)CC[C@@H]2C)cccc1-c1cccc2c1CC[C@@H]2Oc1cc(OCc2cc(C#N)cc(C#N)c2)c(CN[C@H]2CCC(=O)NC2)cc1Cl` the IC50 was under 5 nM.
`Cc1c(OCCCN2CC(F)C2)cccc1-c1cccc2c1CC[C@@H]2Oc1cc(OCc2cncc(C#N)c2)c(CNCC2CCC(=O)N2)cc1Cl` (stereo partly shown) showed an IC50 of under 5 nM.
Molecule `CCOc1cc(O[C@H]2CCc3c(-c4cccc(OCCCN5C(C)CC5(C)C)c4C)cccc32)c(Cl)cc1CNC[C@@H]1CCC(=O)N1` (stereo partly shown) has an IC50 of under 5 nM.
Molecule `Cc1c(OCCCN2CCC(F)CC2)cccc1-c1cccc2c1CC[C@@H]2Oc1cc(OCc2cc(C#N)cc(C#N)c2)c(CN[C@H]2CCC[C@H]2O)cc1Cl` has an IC50 of under 5 nM.
`Cc1c(OCCCN2CCC(F)CC2)cccc1-c1cccc2c1CC[C@@H]2Oc1cc(OCc2cc(C#N)cc(C#N)c2)c(CNC2CCNC(=O)C2)cc1Cl` (stereo partly shown) was tested, and the IC50 was under 5 nM.
`Cc1c(OCCCN2CCC2(C)C)cccc1-c1cccc2c1CC[C@@H]2Oc1cc(OCc2cc(C#N)cc(C#N)c2)c(CN[C@H]2CCC(=O)NC2)cc1Cl` was tested, and the IC50 was under 5 nM.
With `Cc1c(OCCCN2CCC(F)CC2)cccc1-c1cccc2c1CC[C@@H]2Oc1cc(OCc2cc(C#N)cc(C#N)c2)c(CN[C@@H]2CCC(=O)NC2)cc1Cl` the IC50 was under 5 nM.
Molecule `CCOc1cc(O[C@H]2CCc3c(-c4cccc(OCCCN5CCC(O)CC5)c4C)cccc32)c(Cl)cc1CN[C@@H](CO)C(=O)O` has an IC50 of under 5 nM.
With `N#Cc1cncc(COc2cc(O[C@H]3CCc4c(-c5cccc(OCCCN6CCC(F)CC6)c5Cl)cccc43)c(Cl)cc2CN2CC(C(=O)O)C2)c1` the IC50 was under 5 nM.
For `Cc1c(OCCCN2CCC(O)CC2)cccc1-c1cccc2c1CC[C@@H]2Oc1cc(OCc2cncc(C#N)c2)c(CNCC(C)(C)O)cc1Cl`, the IC50 was under 5 nM.
With `Cc1c(OCCCN2CCC(O)CC2)cccc1-c1cccc2c1CC[C@@H]2Oc1cc(OCCCN2CC[C@@H](O)C2)c(CN[C@@H]2CCCC[C@@H]2O)cc1Cl` the IC50 was under 5 nM.
`C[C@@H](O)[C@H](NCc1cc(Cl)c(O[C@H]2CCc3c(-c4cccc(OCCCN5CC(O)C5)c4Cl)cccc32)cc1OCc1cncc(C#N)c1)C(N)=O` showed an IC50 of under 5 nM.
Work on `Cc1c(OCCCN2CCC(O)CC2(C)C)cccc1-c1cccc2c1CC[C@@H]2Oc1cc(OCc2cc(C#N)cc(C#N)c2)c(CN[C@H]2CCC(=O)NC2)cc1Cl` (stereo partly shown) yielded an IC50 of under 5 nM.
With `N#Cc1cncc(COc2cc(O[C@H]3CCc4c(-c5cccc(OCCCN6CC7(CC(F)C7)C6)c5Cl)cccc43)c(Cl)cc2CN[C@H]2CCC[C@@H]2O)c1` the IC50 was under 5 nM.
`C[C@@H](O)[C@H](NCc1cc(Cl)c(O[C@H]2CCc3c(-c4cccc(OCCCN5CCC(O)CC5)c4F)cccc32)cc1OCc1cncc(C#N)c1)C(=O)O` gave an IC50 of under 5 nM.
For `CC(C)(O)CNCc1cc(Cl)c(O[C@H]2CCc3c(-c4cccc(OCCCN5CC(O)C5)c4Cl)cccc32)cc1OCc1cncc(C#N)c1`, the IC50 was under 5 nM.
Molecule `N#Cc1cncc(COc2cc(O[C@H]3CCc4c(-c5cccc(OCCCN6CC7(CC(O)C7)C6)c5Cl)cccc43)c(Cl)cc2CN[C@@H]2CCCC[C@@H]2O)c1` has an IC50 of under 5 nM.
`Cc1c(OCCCN2CCC(F)CC2)cccc1-c1cccc2c1CC[C@@H]2Oc1cc(OCc2cc(C#N)cc(C#N)c2)c(CN[C@H]2CCOC[C@H]2O)cc1Cl` was tested, and the IC50 was under 5 nM.
`Cc1c(OCCCN2CCC(O)CC2)cccc1-c1cccc2c1CC[C@@H]2Oc1cc(OCc2cncc(C#N)c2)c(CN2CC[C@@H](O)C2)cc1Cl` gave an IC50 of under 5 nM.
In the case of `N#Cc1cncc(COc2cc(O[C@H]3CCc4c(-c5cccc(OCCCN6CC7(CC(O)C7)C6)c5Cl)cccc43)c(Cl)cc2CN[C@H]2CCC[C@H]2O)c1`, the IC50 is reported as under 5 nM.
`Cc1c(OCCCN2CCC(C)(F)CC2)cccc1-c1cccc2c1CC[C@@H]2Oc1cc(OCc2cc(C#N)cc(C#N)c2)c(CN[C@@H]2CCC[C@H]2O)cc1Cl` gave an IC50 of 5 to 500 nM.
`Cc1c(OCCCN2CCC(O)CC2)cccc1-c1cccc2c1CC[C@@H]2Oc1cc(OCc2cncc(C#N)c2)c(CN[C@@H]2CCC[C@H]2O)cc1Cl` gave an IC50 of under 5 nM.
With `N#Cc1cncc(COc2cc(O[C@H]3CCc4c(-c5cccc(OCCCN6CC7(C6)CC(F)(F)C7)c5Cl)cccc43)c(Cl)cc2CN[C@@H]2CC[C@H]2O)c1` the IC50 was under 5 nM.
For `Cc1c(OCCCN2CCC(O)CC2)cccc1-c1cccc2c1CC[C@@H]2Oc1cc(OCc2cncc(C#N)c2)c(CNCC2CCC(=O)N2)cc1Cl` (stereo partly shown), the IC50 was under 5 nM.
Molecule `N#Cc1cncc(COc2cc(O[C@H]3CCc4c(-c5cccc(OCCCN6CCC(F)CC6)c5Cl)cccc43)c(Cl)cc2CN[C@H]2CCC[C@@H]2O)c1` has an IC50 of under 5 nM.
`CCOc1cc(O[C@H]2CCc3c(-c4cccc(OCCCN5CC6(CC(O)C6)C5)c4C)cccc32)c(Cl)cc1CN[C@@H](CO)C(=O)O` showed an IC50 of under 5 nM.
`CC1(F)CCN(CCCOc2cccc(-c3cccc4c3CC[C@@H]4Oc3cc(OCc4cncc(C#N)c4)c(CNC[C@@H]4CCC(=O)N4)cc3Cl)c2Cl)CC1` was tested, and the IC50 was under 5 nM.
In the case of `CCOc1cc(O[C@H]2CCc3c(-c4cccc(OCCCN5[C@H](C)CC[C@H]5C)c4C)cccc32)c(Cl)cc1CNC[C@@H]1CCC(=O)N1`, the IC50 is reported as under 5 nM.
`Cc1c(OCCCN2CCC(CO)CC2)cccc1-c1cccc2c1CC[C@@H]2Oc1cc(OCc2cncc(C#N)c2)c(CN[C@H](C(=O)O)[C@@H](C)O)cc1Cl` gave an IC50 of under 5 nM.
Molecule `Cc1c(OCCCNC[C@@H](O)CO)cccc1-c1cccc2c1CC[C@@H]2Oc1cc(OCc2cncc(C#N)c2)c(CN[C@H](C(=O)O)[C@@H](C)O)cc1Cl` has an IC50 of under 5 nM.
For `Cc1c(OCCCN2CCC[C@H]2CO)cccc1-c1cccc2c1CC[C@@H]2Oc1cc(OCc2cncc(C#N)c2)c(CN[C@H](C(=O)O)[C@@H](C)O)cc1Cl`, the IC50 was under 5 nM.
`N#Cc1cncc(COc2cc(O[C@H]3CCc4c(-c5cccc(OCCCN6CCC(O)CC6)c5Cl)cccc43)c(Cl)cc2CN[C@@H]2CCCC[C@@H]2O)c1` showed an IC50 of under 5 nM.
In the case of `CCOc1cc(O[C@H]2CCc3c(-c4cccc(OCCCN5CCCC5(C)C)c4C)cccc32)c(Cl)cc1CNC[C@@H]1CCC(=O)N1`, the IC50 is reported as under 5 nM.
